This passage reports GI50 and TGI results from PubChem BioAssay (NCI).

Among the test systems are ACHN renal; IGROV1 ovarian; MALME-3M melanoma; SNB-75 CNS; HL-60(TB) leukemia; SF-539 CNS; OVCAR-3 ovarian; OVCAR-4 ovarian; U251 CNS.
Experiment in all cases: NCI anticancer screen, dose series, 48 h

Values joined by “and” are separate entries in the source; they are usually repeats but may differ in a detail not shown here. Identical values can stand only once.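 Tested at 5 concentrations; 48 h exposure; 96-well plates; endpoints linearly interpolated, else capped at highest concentration. At the GI50, growth is halved. TGI: concentration producing complete growth inhibition.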

For `N.N.N.N.N.N.O=N[O-].[Br-].[Co+3].[Co+3].[OH3+].[OH3+]`, the GI50 in the assay with ACHN renal, in the assay with IGROV1 ovarian, in the assay with MALME-3M melanoma, in the assay with SNB-75 CNS, with HL-60(TB) leukemia and with SF-539 CNS was more than 100 µM throughout. In addition, the TGI in the assay on ACHN renal, in the assay on IGROV1 ovarian, with MALME-3M melanoma, in the assay on SNB-75 CNS, in the assay on HL-60(TB) leukemia and in the assay on SF-539 CNS was more than 100 µM each time.

Regarding `COc1cc(Br)c(C=Nc2cccc3ccc(OS(=O)(=O)c4cccc([N+](=O)[O-])c4)cc23)cc1OC`, the TGI is more than 100 µM in the assay with OVCAR-3 ovarian; more than 100 µM in the assay with ACHN renal; more than 100 µM with IGROV1 ovarian; more than 100 µM in the assay with MALME-3M melanoma; more than 100 µM in the assay on OVCAR-4 ovarian; 39.5 µM in the assay with SF-539 CNS. This compound gave a TGI with U251 CNS of more than 100 µM.

For the compound `CN[C@@H]1C[C@H]2O[C@@](C)([C@@H]1OC)n1c3ccccc3c3c4c(c5c6ccccc6n2c5c31)C(=O)N[C@@H]4O`, the TGI with OVCAR-3 ovarian was 0.3 µM and 0.722 µM; in the assay with IGROV1 ovarian, 0.0617 µM and 0.341 µM; in the assay on MALME-3M melanoma, 0.0589 µM and 0.461 µM; in the assay on SNB-75 CNS, 0.0143 µM and 0.0271 µM; with SF-539 CNS, 0.0314 µM and 0.0577 µM; in the assay on U251 CNS, 0.3 µM and 0.333 µM. Also, the GI50 was 0.00526 µM and < 0.0151 µM in the assay with ACHN renal; 0.0129 µM and 0.0461 µM with IGROV1 ovarian; 0.0154 µM in the assay on MALME-3M melanoma; 0.0286 µM in the assay on OVCAR-4 ovarian; 0.00322 µM with SNB-75 CNS; 0.0196 µM with SF-539 CNS.

As for `CC(=O)OC1[C@H]2c3cc4c(cc3CN3CCC(=C[C@@H]1O)C23)OCO4` (some centres undefined), the TGI in the assay with OVCAR-3 ovarian, with ACHN renal, in the assay with IGROV1 ovarian, in the assay with MALME-3M melanoma, in the assay on SNB-75 CNS and in the assay with HL-60(TB) leukemia was more than 100 µM throughout. For the same compound, the TGI in the assay on SF-539 CNS and in the assay on U251 CNS was more than 100 µM throughout.

As to `BrC1(Br)C2/C=C\CCCCC21` (centres undefined), the TGI with ACHN renal, in the assay on IGROV1 ovarian, in the assay with MALME-3M melanoma, in the assay with OVCAR-4 ovarian, with HL-60(TB) leukemia and in the assay on SF-539 CNS was more than 100 µM each time. For the same compound, the TGI in the assay with U251 CNS is more than 100 µM.

`S=c1nc(-c2cccnc2)[nH][nH]1`: the TGI was more than 100 µM in the assay on ACHN renal; more than 100 µM with MALME-3M melanoma; more than 1 µM in the assay with OVCAR-4 ovarian; more than 100 µM with SNB-75 CNS; more than 100 µM with HL-60(TB) leukemia; more than 100 µM in the assay on U251 CNS.

Regarding `CCOc1ccccc1NC(=O)CCc1nc(=S)[nH][nH]1`, the TGI in the assay with OVCAR-3 ovarian, in the assay on ACHN renal, in the assay with IGROV1 ovarian, with MALME-3M melanoma, with OVCAR-4 ovarian and in the assay with HL-60(TB) leukemia was more than 100 µM in each case. The TGI in the assay with SF-539 CNS and in the assay with U251 CNS was more than 100 µM throughout.

Regarding `Cc1cc2c(=O)c3ccccc3[nH]c2c(C(=O)O)c1C`, the TGI in the assay with OVCAR-3 ovarian, with ACHN renal, in the assay with IGROV1 ovarian, in the assay on OVCAR-4 ovarian, in the assay with SNB-75 CNS and in the assay on HL-60(TB) leukemia was more than 100 µM each time. Also, the TGI in the assay with SF-539 CNS and in the assay with U251 CNS was more than 100 µM each time.

In the case of `O=C(OC[C@H]1O[C@@H](OC(=O)c2cc(O)c(O)c(O)c2)[C@H](OC(=O)c2cc(O)c(O)c(O)c2)[C@@H](OC(=O)c2cc(O)c(O)c(O)c2)[C@@H]1OC(=O)c1cc(O)c(O)c(O)c1)c1cc(O)c(O)c(O)c1`, the TGI with OVCAR-3 ovarian was 17.7 µM; with ACHN renal it was 30.1 µM; in the assay on IGROV1 ovarian, more than 100 µM; in the assay on OVCAR-4 ovarian it was 41.1 µM; in the assay with HL-60(TB) leukemia, more than 100 µM; in the assay on SF-539 CNS it was 16.3 µM. Further, the TGI in the assay on U251 CNS came to 54.3 µM.

`C1=CC=C2NCCOCCNC3=CC=CC=CC3=NCCOCCN=C2C=C1`: the TGI was more than 100 µM in the assay on OVCAR-3 ovarian; more than 100 µM in the assay on ACHN renal; more than 100 µM with IGROV1 ovarian; 76 µM in the assay with MALME-3M melanoma; more than 100 µM in the assay on OVCAR-4 ovarian; more than 100 µM with SNB-75 CNS. Further, the TGI was 70.5 µM in the assay on HL-60(TB) leukemia and more than 100 µM in the assay on U251 CNS.

In the case of `CC1(C)C2CCC3(C2)CS(=O)(=O)N2OC231` (centres undefined), the TGI with OVCAR-3 ovarian was found to be 33.2 µM; with ACHN renal, 29.4 µM; with IGROV1 ovarian it was 43.4 µM; in the assay on MALME-3M melanoma it was 28.8 µM; in the assay with SNB-75 CNS, 36.5 µM; in the assay on HL-60(TB) leukemia, 43.3 µM. In addition, the results for the TGI in the assay on SF-539 CNS and in the assay on U251 CNS were 33.6 µM and more than 100 µM, respectively.

Take `CCOC(=O)[C@H]1Nc2ccc(OC)cc2C2c3ccccc3CC21` (some centres undefined): the TGI in the assay with OVCAR-3 ovarian, with ACHN renal, with IGROV1 ovarian, with MALME-3M melanoma, in the assay on OVCAR-4 ovarian and with SNB-75 CNS was more than 100 µM in each case. Besides, the TGI in the assay on SF-539 CNS and with U251 CNS was more than 100 µM each time.
